Laboratory results published in BindingDB's records for doi:10.1016/j.bioorg.2015.06.004 (University of Karachi, 2015).

What follows are compounds tested against Urease [D459Y,K653P] (Canavalia ensiformis, UniProt P07374, D459Y/K653P) (assay: Urease Inhibition Assay). Conditions: pH 8.2.
Description: The mixture of this enzyme inhibition assay was composed of 10 µL of enzyme (5 U/mL) and 10 µL of each test compound in the series (3a-3s) in 40 µL buffer (100 mM urea, 0.01 M K2HPO4, 1 mM EDTA and 0.01 M […], pH 8.2). The resulting mixture in for each test compound was incubated for 30 min at 37 °C in 96-well plates. Subsequently, the phenol reagents (40 µL) (1%, w/v phenol and 0.005%, w/v sodium nitroprusside) and alkali reagent (40 µL) (0.5%, w/v NaOH and 0.1% active chloride NaOCl) were dropped down into each well. The absorbance of the colored resultant mixtures was measured after 30 min at 625 nm.

Sequence of Urease [D459Y,K653P] (P07374 whole entry D459Y/K653P): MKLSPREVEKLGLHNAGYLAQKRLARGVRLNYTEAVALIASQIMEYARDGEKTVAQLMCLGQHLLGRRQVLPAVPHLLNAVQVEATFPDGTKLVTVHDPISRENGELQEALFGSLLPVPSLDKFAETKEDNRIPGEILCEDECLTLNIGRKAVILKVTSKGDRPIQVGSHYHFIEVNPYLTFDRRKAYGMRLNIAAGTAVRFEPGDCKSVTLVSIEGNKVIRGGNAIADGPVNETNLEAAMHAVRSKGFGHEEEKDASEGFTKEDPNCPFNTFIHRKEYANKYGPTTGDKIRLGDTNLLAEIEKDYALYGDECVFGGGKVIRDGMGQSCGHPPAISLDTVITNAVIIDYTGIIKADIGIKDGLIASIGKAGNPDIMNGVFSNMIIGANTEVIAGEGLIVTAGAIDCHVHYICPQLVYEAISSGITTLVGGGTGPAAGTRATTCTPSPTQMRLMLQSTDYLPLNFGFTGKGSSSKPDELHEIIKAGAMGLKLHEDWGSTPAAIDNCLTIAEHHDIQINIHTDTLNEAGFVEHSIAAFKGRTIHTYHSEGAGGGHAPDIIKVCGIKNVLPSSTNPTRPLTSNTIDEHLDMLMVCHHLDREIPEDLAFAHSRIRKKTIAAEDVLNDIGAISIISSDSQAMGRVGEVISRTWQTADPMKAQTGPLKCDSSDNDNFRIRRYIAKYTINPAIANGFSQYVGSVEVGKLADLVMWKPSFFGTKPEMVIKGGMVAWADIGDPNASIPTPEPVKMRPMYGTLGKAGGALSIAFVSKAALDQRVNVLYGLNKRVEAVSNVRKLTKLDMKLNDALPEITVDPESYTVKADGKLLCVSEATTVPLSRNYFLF

| Compound | IC50 [µM] |
| --- | --- |
| CC(=NNC(=S)Nc1cccc(C)c1)c1cc2ccccc2o1 [1-[1-(2-benzofuranyl)ethylideneamino]-3-(3-methylphenyl)thiourea] | 0.283 |
| CC(=NNC(=S)Nc1ccc(Cl)cc1Cl)c1cc2ccccc2o1 [2-(1-(Benzofuran-2-yl)ethylidene)-N-(2,4-dichlorophenyl)-hydrazinecarbothioamide (3c)] | 0.592 |
| CC(=NNC(=S)Nc1ccc(F)cc1F)c1cc2ccccc2o1 [2-(1-(Benzofuran-2-yl)ethylidene)-N-(2,4-difluorophenyl)hydrazinecarbothioamide (3h)] | 0.387 |
| CC(=NNC(=S)Nc1cc(Cl)ccc1Cl)c1cc2ccccc2o1 [2-(1-(Benzofuran-2-yl)ethylidene)-N-(2,5-dichlorophenyl)-hydrazinecarbothioamide (3d)] | 2.01 |
| CC(=NNC(=S)Nc1ccccc1Br)c1cc2ccccc2o1 [2-(1-(Benzofuran-2-yl)ethylidene)-N-(2-bromophenyl)hydrazinecarbothioamide (3j)] | 0.564 |
| CC(=NNC(=S)Nc1ccccc1F)c1cc2ccccc2o1 [2-(1-(Benzofuran-2-yl)ethylidene)-N-(2-fluorophenyl)hydrazinecarbothioamide (3g)] | 0.321 |
| COc1ccccc1NC(=S)NN=C(C)c1cc2ccccc2o1 [2-(1-(Benzofuran-2-yl)ethylidene)-N-(2-methoxyphenyl)hydrazinecarbothioamide (3o)] | 24 |
| CC(=NNC(=S)Nc1ccccc1C)c1cc2ccccc2o1 [2-(1-(Benzofuran-2-yl)ethylidene)-N-(2-methylphenyl)hydrazinecarbothioamide (3p)] | 0.314 |
| CC(=NNC(=S)Nc1cccc(Br)c1)c1cc2ccccc2o1 [2-(1-(Benzofuran-2-yl)ethylidene)-N-(3-bromophenyl)hydrazinecarbothioamide (3i)] | 10.9 |
| CC(=NNC(=S)Nc1cccc(Cl)c1)c1cc2ccccc2o1 [2-(1-(Benzofuran-2-yl)ethylidene)-N-(3-chlorophenyl)hydrazinecarbothioamide (3b)] | 1.13 |
| CC(=NNC(=S)Nc1cccc(F)c1)c1cc2ccccc2o1 [2-(1-(Benzofuran-2-yl)ethylidene)-N-(3-fluorophenyl)hydrazinecarbothioamide (3f)] | 1.15 |
| COc1cccc(NC(=S)NN=C(C)c2cc3ccccc3o2)c1 [2-(1-(Benzofuran-2-yl)ethylidene)-N-(3-methoxyphenyl)hydrazinecarbothioamide (3n)] | 0.102 |
| CC(=NNC(=S)Nc1cccc([N+](=O)[O-])c1)c1cc2ccccc2o1 [2-(1-(Benzofuran-2-yl)ethylidene)-N-(3-nitrophenyl)hydrazinecarbothioamide (3k)] | 0.077 |
| CC(=NNC(=S)Nc1ccc(F)cc1)c1cc2ccccc2o1 [2-(1-(Benzofuran-2-yl)ethylidene)-N-(4-fluorophenyl)hydrazinecarbothioamide (3e)] | 0.177 |
| COc1ccc(NC(=S)NN=C(C)c2cc3ccccc3o2)cc1 [2-(1-(Benzofuran-2-yl)ethylidene)-N-(4-methoxyphenyl)hydrazinecarbothioamide (3m)] | 2.61 |
| CC(=NNC(=S)Nc1ccc([N+](=O)[O-])cc1)c1cc2ccccc2o1 [2-(1-(Benzofuran-2-yl)ethylidene)-N-(4-nitrophenyl)hydrazinecarbothioamide (3l)] | 0.181 |
| CC(=NNC(=S)Nc1ccccc1)c1cc2ccccc2o1 [2-(1-(Benzofuran-2-yl)ethylidene)-N-phenylhydrazinecarbothioamide (3a)] | 0.089 |
| C=CCNC(=S)NN=C(C)c1cc2ccccc2o1 [N-Allyl-2-(1-(benzofuran-2-yl)ethylidene)hydrazinecarbothioamide (3s)] | 0.694 |
| CC(=NNC(=S)Nc1ccc(C)cc1)c1cc2ccccc2o1 [SMR000377934] | 3.47 |
